# In paper PMC7356970, “A Population Pharmacokinetic and Pharmacodynamic Model of CKD-519” (Pharmaceutics, 2020):
# What was measured:
# Plasma CETP activity = target: T1, Plasma CETP activity (Homo sapiens, UniProt P11597); test: population CETP model (turnover model), plasma CETP activity by fluorescent assay; assay type: in vivo
# T1 construct: from tissue; host or cells: plasma of healthy subjects (sodium heparin tubes)
# T1 sequence (P11597 18-493): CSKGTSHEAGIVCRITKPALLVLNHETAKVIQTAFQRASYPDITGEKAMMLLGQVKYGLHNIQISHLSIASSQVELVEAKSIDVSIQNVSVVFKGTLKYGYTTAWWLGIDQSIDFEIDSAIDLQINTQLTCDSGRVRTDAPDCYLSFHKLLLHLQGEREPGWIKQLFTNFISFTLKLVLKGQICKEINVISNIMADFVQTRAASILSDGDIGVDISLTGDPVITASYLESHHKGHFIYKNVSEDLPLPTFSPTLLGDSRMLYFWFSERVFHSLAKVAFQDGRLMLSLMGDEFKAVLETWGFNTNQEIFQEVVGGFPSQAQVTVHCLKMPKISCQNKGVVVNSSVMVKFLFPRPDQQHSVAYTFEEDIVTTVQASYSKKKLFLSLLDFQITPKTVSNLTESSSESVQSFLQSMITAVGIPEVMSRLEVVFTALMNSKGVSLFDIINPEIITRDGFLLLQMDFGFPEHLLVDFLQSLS
# Experimental: (§1) Blood samples for PK or PD were collected on days 1 (0, 1, 2, 3, 4, 5, 6, 7, 8, 10, 12, 18, and 24 h) and 14 (0, 1, 2, 3, 4, 5, 6, 7, 8, 10, 12, 18, 24, 32, 48, 72, 96, 120, 144, and 168 h), along with daily sampling on days 2 through 13 to determine trough levels of drug concentration, CETP activity, and lipid values. Each blood sample for PK and CETP activity was collected in sodium heparin tubes and then centrifuged at 1900 g for 10 min. Their aliquots were stored at or below […] until analysis. The plasma concentrations of CKD-519 were measured using a validated high-performance liquid chromatography-tandem mass spectrometry assay. A 100 μL plasma sample was mixed with 10 μL internal standard working solution and 300 μL acetonitrile. After centrifugation, 3 μL supernatant was injected into the column. The lower limit of quantification was 1.0 ng/mL. The calibration curve was linear over the concentration range of 1.0–2000 ng/mL. The precision of the assay was less than 2.7% coefficient of variation, and the accuracy of the assay was within the range of 93.7–113.0% [5]. Plasma CETP activity was measured by using a fluorescent assay method previously described. HDL-C and LDL-C were measured with an ADIVA 1650 Clinical Chemistry System (Siemens Medical Solutions, Tarrytown, NY, USA).
# Since CETP inhibition is closely related to HDL-C increase and LDL-C decrease, the CETP model was included as a link between the PK model of CKD-519 and cholesterol (HDL-C and LDL-C) models. For the CETP model, CETP activity was used as a dependent variable as this was the primary parameter of interest.
# The turnover model was used to describe the relationship between CETP activity and plasma concentration of CKD-519. The effect of CKD-519 was applied in the model as stimulating the elimination of CETP activity. Because the CETP activity increased over time in the placebo group, the response of placebo treatment was incorporated into the CETP model. The effects of CKD-519 and placebo treatment were evaluated as linear, Emax, or sigmoid Emax relationships. […]
# CETP activity [1] = target: T2, CETP activity (Homo sapiens, UniProt P11597); parameters: method as in PMID 27895466; conditions: healthy subjects, cited from earlier work
# T2 construct: Plasma CETP activity was measured by using a fluorescent assay method previously described; from tissue; host or cells: plasma of healthy subjects (sodium heparin tubes)
# T2 sequence (P11597 18-493): T1 sequence (P11597 18-493)
# HDL-C = test: population HDL-C model (turnover, sigmoid Emax); assay type: in vivo, human
# Experimental: as §1
# (§2) For each of the HDL-C and LDL-C model development, their clinical laboratory results were used. Their responses by changing CETP activity were described using turnover models. Taking into account the physiological mechanism of CETP on lipid metabolism, the CETP effect was incorporated into the model as a stimulatory function of HDL-C elimination and an inhibitory function of LDL-C elimination. The effect of CETP activity on HDL-C or LDL-C was evaluated using linear, Emax, or sigmoid Emax models.
# (§3) HDL-C and LDL-C models were best described with the sigmoid Emax function. The LDL-C in the placebo group tended to increase gradually over time. Thus, a linear model was used to describe the placebo effect on LDL-C after comparison with Emax and sigmoid Emax models. The changes in HDL-C and LDL-C concentration were described as follows:(7) dHDL/dt=Ksyn−Kdeg×AHDL×(1+RESCETP) (8) dLDL/dt=Ksy×(1+PLA)−Kdeg×ALDL×(1−RESCETP) (9) RESCETP=CETPactivityγ×Rmax/CETPactivityγ+R50γ (10) PLA=β×time where Ksyn and Ksy are the zero-order production rate constant, Kdeg is the first-order elimination rate constant, RESCETP is the change in CETP activity, Rmax is the maximal effect of CETP activity on HDL-C and LDL-C response, R50 is the CETP activity required to attain 50% maximal response of HDL-C and LDL-C, PLA is the placebo effect, and β is the proportionality constant.
# [2] = food effect on PK, single 200 mg, standard meal vs fasted; assay type: in vivo, human; conditions: single 200 mg with a standard meal; in house data
# Description: (§4) The exposure of CKD-519 increased with the dose. However, maximum plasma concentration (Cmax) and area under the plasma concentration-time curve (AUC) normalized by dose decreased with each incremental dose.
# LDL-C = test: population LDL-C model (turnover, sigmoid Emax); assay type: in vivo, human
# Experimental: as §1, §2, §3
# [3] = parameters: method as in PMID 30107219, PMID 27895466; conditions: at pH 7.4; cited from earlier work
# CETP activity [4] = target: T2, CETP activity; test: food effect on inhibition of CETP activity, single 200 mg; assay type: in vivo
# Description: as §4
# [5] = cited from earlier work
# serum CETP concentration = serum CETP concentration during multiple dosing; assay type: in vivo, human; conditions: time-dependent, in house data
# Description: As reported earlier in other CETP inhibitors, the administration of CKD-519 in this study led to an approximately 2.5 fold increase in serum CETP concentration in a time-dependent manner (in house data). In the placebo group, serum CETP concentration increased by about 30% after two weeks (in house data). It has been reported that transcription of the CETP gene is under the control of extrinsic and intrinsic factors. Dietary cholesterol up-regulates CETP expression in human CETP-transgenic mice, and plasma cholesterol levels also correlate with CETP mass in humans. The increase in CETP activity in the placebo group might be due to increased serum CETP mass because dietary cholesterol regularly served during hospitalization for three weeks could have promoted CETP expression. […] Linear, Emax, and sigmoid Emax models were tested to explain CETP activity increase in the placebo group, and the Emax model by time best described the placebo effect.
# [6] = multiple-dose study in healthy male subjects, plasma PK and population PK model; assay type: in vivo, human; conditions: for CL/F: observed
# Experimental: A randomized, double-blinded, placebo-controlled, multiple-dose, and dose-escalation study was conducted in a total of 32 healthy male subjects aged 19–55 years in four cohorts (50, 100, 200, and 400 mg). Six subjects were assigned to CKD-519, and two to matching placebo in each cohort. Dose escalation to the next cohort was done after the safety profile was reviewed. CKD-519 was available as two dosage forms of 50 and 100 mg tablets.
# Enrolled subjects were admitted on day −1. CKD-519 or placebo was administered to randomly assigned subjects for 14 days with a standard breakfast meal (700–800 kcal, containing 5–25% fat content). All subjects were hospitalized until completion of blood sampling for PK and PD (from day −1 to day 21). All meals were nutritionally equivalent and provided at the same time scheduled throughout the study period. The participants were not permitted to take any drugs or herbal medications and also were restricted from consuming any other snacks or beverages during the study.
# as §1
# PK and PD models were developed using NONMEM version 7.3 (Icon Development Solutions, Ellicott City, MD, USA) using a first-order conditional estimation with interaction method (FOCE-INTER). R (version 3.6.1, R Foundation for Statistical Computing, Vienna, Austria) was used for data preparation, graphical analysis, and model diagnostics. The population PK-PD model was developed sequentially. The PK model was initially developed, and then the CETP model (PK-PD) was developed using individual PK parameters estimated from the final PK model. Finally, the cholesterol (HDL-C or LDL-C) models were developed using the individual CETP parameters estimated from the final CETP model.
# Inter-individual variability (IIV) for each parameter in all models was assumed to follow a Gaussian distribution with a mean of 0 and variance of ω^2. For the PK model, once the IIV term was selected, the covariance between the terms was assessed using an omega block on selected parameters. As for the residual error, additive, proportional, and combined models were tested. The model was selected after a comparison of several criteria such as a decrease in the objective function value (OFV), completion of the estimation and covariance routines, the precision of the parameter and error estimates, and visual exploration of the diagnostic plots.
# Several disposition models were assessed, including 1-, 2-, and 3- compartment structural models. Absorption was evaluated with first-order, zero-order (with and without lag time), Weibull-type, and Erlang’s model. The bioavailability was assessed about the effects of the dose and time. […]
# [7] = final population PK model estimate
structure (smiles),measurement,setting,value
COc1cc(F)c(C(C)C)cc1C1=C(CN2C(=O)O[C@H](c3cc(C(F)(F)F)cc(C(F)(F)F)c3)[C@@H]2C)CC(C)(C)CC1 [CKD-519],"EC50, plasma drug concentration of half-maximal effect on CETP activity",Plasma CETP activity; CETP model estimate,0.587 µg/mL
same,"Emax, maximal effect of plasma drug concentration on CETP activity","Plasma CETP activity; CETP model estimate, stimulation of Kout",18.2
same,"ωEmax, interindividual variability on Emax",Plasma CETP activity; CV%,39.5%
same,maximum inhibitory effect of CETP activity,CETP activity [1]; single administration 25–400 mg,63–83%
same,EC50 (CETP activity),CETP activity [1]; single administration,0.0173 µg/mL
same,"R50, CETP activity of half-maximal effect on HDL-C response",HDL-C; HDL-C model estimate,185.0 pmol
same,"Rmax, maximal effect of CETP activity on HDL-C response",HDL-C; HDL-C model estimate,1.5
same,"γ, steepness of the CETP activity versus HDL-C relationship",HDL-C; HDL-C model estimate,2.1
same,maximal increase in HDL-C,HDL-C; estimated,160–190%
same,increase in AUC relative to the fasted state,[2],5.8 fold
same,increase in Cmax relative to the fasted state,[2],8.7 fold
same,"ωGAM, interindividual variability on γ","LDL-C; CV%, LDL-C model",50.9%
same,"R50, CETP activity of half-maximal effect on LDL-C response",LDL-C; LDL-C model estimate,80.7 pmol
same,"Rmax, maximal effect of CETP activity on LDL-C response",LDL-C; LDL-C model estimate,0.8
same,"γ, steepness of the CETP activity versus LDL-C relationship",LDL-C; LDL-C model estimate,2.2
same,maximal decrease in LDL-C,LDL-C; estimated,47–66%
same,LogP,[3],> 5.0
same,inhibitory effect of CETP activity,CETP activity [4]; fasted group,81.5%
same,inhibitory effect of CETP activity,CETP activity [4]; fed group,91.4%
same,aqueous solubility,[5],less than 1.0 μg/mL
same,solubility in deionized water,[5]; in vitro solubility test,insoluble
same,solubility in ethyl alcohol,[5]; in vitro solubility test,freely soluble
same,increase in serum CETP concentration,serum CETP concentration,approximately 2.5 fold
same,increase of CL/F from 50 mg to 200 mg,[6]; 50 mg vs 200 mg,approximately 2.5 fold
same,increase of AUC after multiple administration compared to the first dose,[6]; 400 mg group,three-fold increase
same,"α1, proportionality constant for fraction of first-order absorption process depending on time","[6]; 50, 100 and 200 mg dose groups",0.002
same,"ωBmax, interindividual variability on BMAX",[6]; CV%,28.2%
same,"ωCL/F, interindividual variability on CL/F",[6]; CV%,15.6%
same,"ωKtr, interindividual variability on Ktr",[6]; CV%,14.1%
same,"ωV3/F, interindividual variability on V3/F",[6]; CV%,58.1%
same,Tmax,[6]; all dose groups,approximately 1 h
same,"Ka, absorption rate constant",[6]; [7],1.09 h⁻¹
same,"V2/F, volume of peripheral compartment 1",[6]; [7],45.4 L
same,"V3/F, volume of peripheral compartment 2",[6]; [7],1006.0 L
same,"V/F, volume of central compartment",[6]; [7],11.4 L
same,"CL/F, clearance","[6]; final population PK model estimate, 50–400 mg daily for 14 days with standard meal",6.4 L/h
same,"Ktr, transit rate constant","[6]; final population PK model estimate, Erlang's absorption, five transit compartments",1.10 h⁻¹
same,CL/F,[6]; 50 mg,11.98 L/h
same,CL/F,[6]; 200 mg,30.04 L/h
same,CL/F,[6]; 400 mg,23.98 L/h
same,half-life,"[6]; terminal, across dose groups",145.4 to 166.2 h
